pIC50: −log10 of the molar value.
Target: T1, recombinant GSK3β enzyme (human GSK3β) (Homo sapiens, UniProt P49841)
T1 construct: FLAG (N); made in house; host or cells: Sf-21 insect cells, recombinant baculovirus (pFASTBAC1 / BAC-TO-BAC)
Experiment: Measurement of GSK3β inhibitory activity
Assay type: biochemical
Conditions: glycogen synthase peptide substrate, Kinase Glo luminescence, read-out: IC50 (concentration of test compound needed for 50% inhibition of luminescent intensity), GSK3β inhibitory activity
Excerpt: Human GSK3β gene was cloned by a PCR method using a primer set:
prepared using human brain cDNA (Clontech; trade name: QUICK-Clone cDNA) as a template and in reference to the base sequence of GSK3β gene registered in GenBank under Accession Number NM_002093.
PCR was done according to the protocol attached to KOD plus DNA polymerase (Toyo Boseki Kabushiki Kaisha). The obtained PCR product was electrophoresed on agarose gel (1%), and 1.2 kb of DNA fragment including GSK3β gene was collected from the gel and then digested with restriction enzymes EcoR I and Sal I. The restriction enzyme-treated DNA was electrophoresed on agarose gel (1%). The obtained DNA fragment was collected, and ligated to the plasmid pFASTBAC1 (Invitrogen), which had been digested with restriction enzyme EcoR I and Sal I, to produce expression plasmid pFB-GSK3B. The base sequence of insertion fragment was confirmed to find that it corresponded to the objective sequence. In addition, virus stock BAC-GSK3B of recombinant Baculovirus was prepared using BAC-TO-BAC Baculovirus Expression System (Invitrogen).
Sf-21 cells (Invitrogen) were seeded on Sf-900 II SFM medium (Invitrogen)(150 ml) containing 10% fetal calf serum at 1×10^6 cells/ml, and cultured at 27° C. for 24 hr. The virus stock […] obtained above of recombinant Baculovirus was added by 150 μl to the obtained culture medium, and the cells were cultured for another 60 hr. The culture medium was centrifuged (3000 rpm, 10 min) to separate the cells, and the cells were washed once with PBS. The cells were suspended in 10 ml of cell lysis buffer (25 mM HEPES (pH 7.5), 1% Triton X, 130 mM sodium chloride, 1 mM EDTA, 1 mM Dithiothreitol, 25 mM β-glycerophosphate, Protease inhibitor Complete (Boehringer), 1 mM Sodium orthovanadate), treated 4 times using a homogenizer (POLYTRON) at 20000 rpm for 30 sec to disrupt the cells. The disrupted solution of cells was centrifuged (40000 rpm, 45 min.), and GSK3β was purified from the obtained supernatant using Anti-FLAG M2 Affinity Gel (Sigma Ltd.).
10 μl of ATP solution (2.5 μM ATP) was added to the obtained mixture, and the mixture was reacted at room temperature for 30 min. Kinase Glo Reagent (Promega) (50 μl) was added to the reaction solution to stop the reaction. After reaction at room temperature for 10 min, the luminescent intensity was measured using ARVO multilabel counter (PerkinElmer Life Sciences). The concentrations of the test compounds needed for 50% inhibition of luminescent intensity (IC50 value) were calculated by PRISM 3.0 (GraphPad Software).

T1 sequence (P49841 whole entry): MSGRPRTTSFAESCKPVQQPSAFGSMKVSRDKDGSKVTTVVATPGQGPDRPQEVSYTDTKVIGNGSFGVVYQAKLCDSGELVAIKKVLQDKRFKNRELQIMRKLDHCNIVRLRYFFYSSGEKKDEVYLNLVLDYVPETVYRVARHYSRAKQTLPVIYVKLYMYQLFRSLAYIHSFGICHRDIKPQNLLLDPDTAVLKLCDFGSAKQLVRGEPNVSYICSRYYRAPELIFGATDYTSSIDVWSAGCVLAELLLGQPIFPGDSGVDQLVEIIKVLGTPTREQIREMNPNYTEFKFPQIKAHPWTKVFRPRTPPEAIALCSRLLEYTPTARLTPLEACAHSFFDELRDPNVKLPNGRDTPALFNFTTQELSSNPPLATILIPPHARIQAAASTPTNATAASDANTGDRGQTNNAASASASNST

SMILES | pIC50
O=C(Nc1c[nH]nc1C(=O)NCc1ccco1)c1ccc(C(F)(F)F)cc1 [compound 154] | 6.57
CC(C)NC(=O)c1n[nH]cc1NC(=O)Cc1c[nH]c2ccccc12 [compound 026] | 6.77
COc1ccccc1CC(=O)Nc1c[nH]nc1C(=O)NCCc1ccccc1 [Example 129, 4-{[(2-methoxyphenyl)acetyl]amino}-N-(2-phenylethyl)-1H-pyrazole-3-carboxamide] | 6.80
O=C(CC1CCCC1)Nc1c[nH]nc1C(=O)NCc1ccccc1 [compound 099] | 6.99
O=C(/C=C/c1ccccc1)Nc1c[nH]nc1C(=O)NCc1ccccc1 [Example 105, N-benzyl-4-{[(2E)-3-phenylprop-2-enoyl]amino}-1H-pyrazole-3-carboxamide] | 6.56
Cc1ccc(C(=O)Nc2c[nH]nc2C(=O)NCCC#N)cc1 [Example 418, N-(2-cyanoethyl)-4-(4-methylbenzoylamino)-1H-pyrazole-3-carboxamide] | > 7.00
O=C(/C=C/c1ccccc1)Nc1c[nH]nc1C(=O)NCCc1ccccc1 [Example 127, N-(2-phenylethyl)-4-{[(2E)-3-phenylprop-2-enoyl]amino}-1H-pyrazole-3-carboxamide] | > 7.00
O=C(NC1CCCC1)c1n[nH]cc1NC(=O)C1CCCC1 [Example 367, N-cyclopentyl-4-(cyclopentanecarbonylamino)-1H-pyrazole-3-carboxamide] | > 7.00
CC(C)NC(=O)c1n[nH]cc1NC(=O)C1CCCCC1 [compound 020] | > 7.00
CC(C)(C)C(=O)Nc1c[nH]nc1C(=O)NCCC#N [Example 415, N-(2-cyanoethyl)-4-(2,2-dimethylpropanoylamino)-1H-pyrazole-3-carboxamide] | > 7.00
COc1ccc(C(=O)Nc2c[nH]nc2C(=O)NC2CCCC2)cc1 [compound 072] | > 7.00
O=C(Nc1c[nH]nc1C(=O)NCC(F)(F)F)c1ccccc1 [Example 422, 4-(benzoylamino)-N-(2,2,2-trifluoroethyl)-1H-pyrazole-3-carboxamide] | > 7.00
CC(=O)Nc1cccc(C(=O)Nc2c[nH]nc2C(=O)NCCN(C)C)c1 [Example 373, 4-((3-(acetylamino)benzoyl)amino)-N-(2-(dimethylamino)ethyl)-1H-pyrazole-3-carboxamide] | > 7.00
CC(C)OCCNC(=O)c1n[nH]cc1NC(=O)c1ccccc1 [Example 424, 4-(benzoylamino)-N-(2-isopropoxyethyl)-1H-pyrazole-3-carboxamide] | > 7.00
CC(=O)Nc1cccc(C(=O)Nc2c[nH]nc2C(=O)NCc2ccco2)c1 [compound 159] | > 7.00
CCOCC(=O)Nc1c[nH]nc1C(=O)NCCc1ccccc1 [Example 125, 4-[(ethoxyacetyl)amino]-N-(2-phenylethyl)-1H-pyrazole-3-carboxamide] | > 7.00
O=C(CC1CCCC1)Nc1c[nH]nc1C(=O)Nc1ccccc1 [compound 081] | 6.97
CC(C)NC(=O)c1n[nH]cc1NC(=O)c1ccccn1 [Example 345, N-(3-((isopropylamino)carbonyl)-1H-pyrazol-4-yl)pyridine-2-carboxamide] | > 7.00
O=C(Nc1c[nH]nc1C(=O)NC1CCCC1)c1ccccn1 [Example 344, N-(3-((cyclopentylamino)carbonyl)-1H-pyrazol-4-yl)pyridine-2-carboxamide] | > 7.00
CC1(C)C2CC[C@@]1(CS(=O)(=O)Nc1c[nH]nc1C(=O)NC1CCCC1)C(=O)C2 [compound 240] | 6.68
O=C(Nc1ccccc1)c1n[nH]cc1NC(=O)c1c[nH]c2ccccc12 [compound 097] | > 7.00
CC(=O)Nc1cccc(C(=O)Nc2c[nH]nc2C(=O)NCCS(=O)(=O)c2ccccn2)c1 [Example 384, 4-((3-(acetylamino)benzoyl)amino)-N-(2-(pyridin-2-ylsulfonyl)ethyl)-1H-pyrazole-3-carboxamide] | > 7.00

Further lines, results first:

pIC50 | SMILES
> 7.00 | CCOCC(=O)Nc1c[nH]nc1C(=O)NC1CCCC1 [compound 064]
> 7.00 | O=C(Nc1c[nH]nc1C(=O)NCCc1ccccc1)c1cnccn1 [Example 141]
> 7.00 | CC(=O)Nc1cccc(C(=O)Nc2c[nH]nc2C(=O)NCCSc2ccccc2)c1 [Example 376, 4-((3-(acetylamino)benzoyl)amino)-N-(2-(phenylthio)ethyl)-1H-pyrazole-3-carboxamide]
> 7.00 | O=C(Nc1c[nH]nc1C(=O)NC1CCCCC1)c1ccccn1 [Example 349, N-(3-((cyclohexylamino)carbonyl)-1H-pyrazol-4-yl)pyridine-2-carboxamide]
> 7.00 | O=C(Nc1c[nH]nc1C(=O)NCc1ccccc1)c1cnccn1 [Example 119, N-{3-[(benzylamino)carbonyl]-1H-pyrazol-4-yl}pyrazine-2-carboxamide]
> 7.00 | COCCNC(=O)c1n[nH]cc1NC(=O)c1ccccn1 [Example 356, N-(3-(((2-methoxyethyl)amino)carbonyl)-1H-pyrazol-4-yl)pyridine-2-carboxamide]
> 7.00 | CC(C)NC(=O)c1n[nH]cc1NC(=O)CCc1ccccc1 [compound 024]
> 7.00 | CCOCC(=O)Nc1c[nH]nc1C(=O)NCc1ccccc1 [Example 103, N-benzyl-4-[(ethoxyacetyl)amino]-1H-pyrazole-3-carboxamide]
> 7.00 | CC(=O)Nc1cccc(C(=O)Nc2c[nH]nc2C(=O)NCCCOC(C)C)c1 [Example 385, 4-((3-(acetylamino)benzoyl)amino)-N-(3-isopropoxypropyl)-1H-pyrazole-3-carboxamide]
> 7.00 | COc1ccc(C(=O)Nc2c[nH]nc2C(=O)NCc2ccco2)cc1 [compound 155]
> 7.00 | CC(=O)Nc1cccc(C(=O)Nc2c[nH]nc2C(=O)NCCOC(C)C)c1 [Example 371, 4-((3-(acetylamino)benzoyl)amino)-N-(2-isopropoxyethyl)-1H-pyrazole-3-carboxamide]
> 7.00 | O=C(Nc1c[nH]nc1C(=O)NCCCc1ccccc1)c1ccccn1 [Example 342, N-(3-(((3-phenylpropyl)amino)carbonyl)-1H-pyrazol-4-yl)pyridine-2-carboxamide]
> 7.00 | O=C(Nc1c[nH]nc1C(=O)NCCc1ccccc1)c1ccc(Oc2ccccc2)cc1 [Example 135, 4-[(4-phenoxybenzoyl)amino]-N-(2-phenylethyl)-1H-pyrazole-3-carboxamide]
> 7.00 | CC(=O)Nc1cccc(C(=O)Nc2c[nH]nc2C(=O)NCC#N)c1 [Example 380, 4-((3-(acetylamino)benzoyl)amino)-N-(cyanomethyl)-1H-pyrazole-3-carboxamide]
> 7.00 | O=C(Nc1c[nH]nc1C(=O)NCc1ccco1)c1ccc2[nH]ccc2c1 [compound 161]
> 7.00 | COc1cccc(C(=O)Nc2c[nH]nc2C(=O)NCCC#N)c1 [Example 414, N-(2-cyanoethyl)-4-(3-methoxybenzoylamino)-1H-pyrazole-3-carboxamide]
> 7.00 | O=C(Nc1c[nH]nc1C(=O)NCc1ccco1)c1ccc(F)cc1F [compound 156]
> 7.00 | CC(=O)Nc1c[nH]nc1C(=O)NCCc1ccccc1 [Example 120, 4-acetylamino-N-(2-phenylethyl)-1H-pyrazole-3-carboxamide]
> 7.00 | O=C(Nc1c[nH]nc1C(=O)NC1CCCC1)c1cnccn1 [compound 079]

— patent publication US20090156582A1, “Pyrazole Compound” (priority 2005, published 2009)
